Earlier results as cited in article PMC3582496 (PLoS Biology, 2013).

How the values were obtained:
CN [1] = test system: CN
CN [2] = test system: CN; remark: listed apart in the source

Molecule | effect on rate of pNpp hydrolysis (CN [1]) | Km (CN [2]) [µM] | Vmax (CN [2]) [µmol/min/mg]
C=CC[C@@H]1/C=C(\C)C[C@H](C)C[C@H](OC)[C@H]2O[C@@](O)(C(=O)C(=O)N3CCCC[C@H]3C(=O)O[C@H](/C(C)=C/[C@@H]3CC[C@@H](O)[C@H](OC)C3)[C@H](C)[C@@H](O)CC1=O)[C@H](C)C[C@@H]2OC [FK506] | rate increases | – | –
DLDVPIPGRFDRRVpSVCAE [RII phosphopeptide] | – | 26 | 1.7
cyclosporin A [CSA] | rate increases | – | –
